Test results as given in patent US11661404B2, “Prodrug compounds activated by AKR1C3 and their use for treating hyperproliferative disorders” (priority 2018, dated 2023).

Legend:
[1] = Stability in solution by HPLC in water and lactate buffer; type: physicochemical; conditions: room temperature
Protocol: The solubility and stability of compound 641 was studied by HPLC in lactate buffer (pH 4) and water as the free base and the mesylate salt (641.Ms) at 0° C. and room temperature (RT). […] However, this was improved considerably by formulation as the mesylate salt, producing a solubility of greater than 100 mmol/L in lactate buffer and greater than 70 mmol/L in water. […] This stability was improved considerably by reducing the temperature of the solution to 0° C.

[2] = test system: mixed HCT116 colon cancer MCLs containing 5% AKR1C3 over-expressing cells; test: High cell density multicellular layer (MCL) assay, bystander cell killing; type: cell-based, human
Protocol: The MCL model utilised for this evaluation consisted of AKR1C3 overexpressing (activator) cells or non-AKR1C3 expressing (target) cells or a mixture of these two cell types grown in a ratio of 5:95. The mixture of the two distinct cell populations enabled the determination of the extent of the transfer of cytotoxic metabolites from the activator cell to the target cell population.
Plating efficiencies were calculated as the fraction of colonies formed relative to the number of cells seeded. The compound concentrations for 10% survival (C10) of target cells grown without activators (T), targets in co-culture (Tc) and activators in co-culture (Ac) was determined by interpolation. Bystander effect efficiency (BEE) was calculated as (Log C10T−Log C10Tc)/(Log C10T−Log C10Ac), where BEE is the measure of cytotoxic metabolite transfer. In contrast to PR-104A, preferred compounds of the invention have a minimal BEE, reducing off-target side effects from ablation of neighbouring non-AKR1C3 expressing cells.
Millicell-CM membrane inserts were coated in calf-skin collagen type III. The collagen solution was prepared dissolving in sterile 0.01 N HCl to a concentration of 3 mg/mL. The collagen solution was diluted (1:5) in sterile 60% ethanol and 100 μL of this solution was used to coat the membrane inserts and left overnight in a sterile environment to dry.
Prior to adding cells, the inserts were sterilised in 70% ethanol and left to aerate in a sterile environment in order for the ethanol to evaporate. A sterile polyethylene foam ring was placed around each insert to enable subsequent floatation. Single cell suspensions of 1×10^6 cells in a volume of 500 μL was added to each insert. When mixtures of cells were required, 1×10^6 cells of the mixed cell suspension (in 500 μL) were added to each insert. The type of mixed MCLs used in experiments consisted of 95% HCT116^NeoR and 5% HCT116^AKR1C3 cells. The HCT116^NeoR ells were used in this mixture as an AKR1C3 negative cell line which can subsequently be grown in selective medium containing Geneticin (G418), and which enabled discrimination with the AKR1C3 positive cell line (which can be grown in selective medium containing puromycin). The inserts containing cells were placed in a sterile screw-top plastic jar containing 300 mL of α-MEM+10% v/v FBS+1% PSG, with a maximum of 6 inserts in a jar. The inserts were left floating in the medium for 4 hours in a humidified incubator (37° C., 5% CO2) to enable cells to adhere to the collagen coat and then submerged in the medium with a sterile stainless steel grid. Cells were left to grow and form MCLs on the inserts for a period of 3 days by placing the jars in a 37° C. water bath with continuous magnetic stirring of the medium.
Three days after growth of cells as MCLs in inserts, each insert was inspected with an inverted phase contrast microscope to ensure uniform growth of cells. Suitable MCLs were transferred to 25 mL glass vessels containing 10 mL of medium (α-MEM+10% v/v FBS+1% PSG) with the required drug concentrations. Each insert in the glass vessel was held by a stainless steel loop attached to the lid. The vessels were placed in a 37° C. water bath. Ports on the lid of each bottle enabled gassing with the required gas phase. The glass vessels containing the MCL inserts and drug were left in the 37° C. water bath for 5 hours with continuous gassing and magnetic stirring of medium. The gas phase used was 5% CO2:95% O2, with the high oxygen concentration used to minimise bioreductive drug activation by endogenous one-electron reductases.
After the 5 hour incubation, each insert was trypsinised in 0.07% trypsin in PBS for 10 minutes at 37° C. to dissociate the MCL into a single cell suspension. The dissociated cells were incubated for a further 10 minutes in α-MEM containing 10% FBS and 100 μg/ml DNAase I. Cells were then counted on a Z2 Coulter® Particle Count and Size Analyzer and resuspended in fresh medium. […]

[3] = 95% HCT116^NeoR : 5% HCT116^AKR1C3, 5 hours

**Q.** Which results are given for `CN1CCN(S(=O)(=O)c2cc([N+](=O)[O-])ccc2N(CCOS(C)(=O)=O)CCOS(C)(=O)=O)CC1` [Compound 641, ((2-((4-methylpiperazin-1-yl)sulfonyl)-4-nitrophenyl)azanediyl)bis(ethane-2,1-diyl) dimethanesulfonate]?
**A.** Stability (% Parent after 24 hours), Lactate Buffer, RT ([1]; lactate buffer (pH 4)): 54.4%; half-life ([1]; pH 4, lactate buffer): ~1440 min; shift in the C10 from T to Tc ([2]; 5% AKR1C3-positive cells): 9 fold; activators in co-culture C10 (Ac) [2, 3]: 0.0054 µM; targets in co-culture C10 (Tc) [2, 3]: 1.27 µM; AKR1C3-positive HCT116 cells clonogenically sterilised ([2]; concentrations 0.002 μM to 0.2 μM, FIG. 8): at least 99.9%; sensitivity of AKR1C3 expressing cells vs AKR1C3-negative cells to clonogenic cell kill (T/Ac) ([2]; high cell density): 2055 fold; target cell C10 (T), concentration for 10% survival ([2]; target cells grown without activators, 5 hours exposure, clonogenic survival): 11.1 µM
